Measured values: patent publication US10975078B2, “Fused indazole pyridone compounds as antivirals” (priority 2017, dated 2021)
Where two headings read alike, the source gives them in different places.

System: HBsAg secretion, HepG2-Clone42 cells (Tet-inducible HBV-expressing, HBV ayw strain)
Experiment: HBsAg assay (HBsAg ELISA, secreted HBV sAg from HepG2-Clone42 cells)
Type: cell-based
Description: HepG2-Clone42, a Tet-inducible HBV-expressing cell line with a stably integrated 1.3 mer copy of the HBV ayw strain, was generated based on the Tet-inducible HepAD38 cell line with slight modifications. Ladner S K, et al., Antimicrobial Agents and Chemotherapy. 41(8):1715-1720 (1997). HepG2-Clone42 cells were cultured in DMEM/F-12+Glutamax™ (Life Technologies, Carlsbad, Calif., USA), supplemented with 10% fetal bovine serum (Life Technologies), G-418 (Corning, Manassas, Va., USA) at a final concentration of 0.5 mg/mL, and 5 μg/mL Doxycycline (Sigma, St. Louis, Mo., USA) and maintained in 5% CO2 at 37° C.
HepG2-Clone42 cells were seeded into black clear-bottom 96-well plates at a concentration of 6.0×10^4 cells/well. 24 hours post-seeding, the cells were treated with 200 μl/well of media containing five-fold serial dilutions of compounds in DMSO. DMSO alone was used as the no drug control. The final DMSO concentration in all wells was 0.5%.
The HBsAg ELISA kit (Alpha Diagnostic International, San Antonio, Tex., USE, Catalog #4110) was used to determine the level (semi-quantitative) of secreted HBV sAg. The HBSAg ELISA assay was performed following the manufacturer's protocol as described.
Step 1. Pipet 100 μL each of compound or DMSO treated samples into HBsAg ELISA plates. Seal plates and incubate at room temp for 60 minutes.
Step 2. Aspirate samples and wash three times with Wash Buffer. Dispense 100 μL of antibody-HRP conjugate to each well. Incubate at room temp for 30 minutes.
Step 3. Aspirate samples and wash three times with Wash Buffer. Add 100 μL of TMB Substrate to all wells and incubate 15 minutes at room temp.
Step 4. Dispense 100 μL of Stop Solution to each well. Measure absorbance of ELISA plate at 450 nm.
Dose-response curves were generated and the EC50 value was defined as the compound concentration at which HBsAg secretion was reduced 50% compared to the DMSO control.
EC50 values were determined as follows:
Determine the percent of HBsAg secretion inhibition. Calculate the percent inhibition on of HBsAg secretion inhibition using the following equation: […]
where XC is the absorbance signal from compound-treated well; MB is average absorbance signal (background signal) for column 12 (no cells+HBsAg ELISA sample buffer) and MD is average absorbance signal from DMSO-treated wells. Then calculate EC50 values by non-linear regression using a four parameter curve logistic equation.
The curve fit model employed is XLFit Dose Response One Site Model 204: y=(A+((B−A)/(1+(10^((C−x)*D))))) where A is the minimum y value, B is the maximum y value, C is the log EC50 value, and D is the slope factor. In the following table+≥100 nM; 100 nM>++≥1 nM; 1 nM>+++

[1] = Hepatitis B virus, read-out: HBsAg (nM), EC50 = concentration at which HBsAg secretion was reduced 50% compared to DMSO control
[2] = read-out: HBsAg, EC50 = concentration at which HBsAg secretion was reduced 50% compared to DMSO control

Compound | EC50 [1] [nM] | EC50 [2] [nM]
CC(C)(C)C1Cn2nc3c(OC4CCC4)cccc3c2-c2cc(=O)c(C(=O)O)cn21 (racemic) [Example 2.29, 6-(tert-butyl)-10-cyclobutoxy-2-oxo-6,7-dihydro-2H-pyrido[2′,1′:3,4]pyrazino[1,2-b]indazole-3-carboxylic Acid] | < 1 | –
COCCCOc1cccc2c3n(nc12)CC(C(C)(C)C)n1cc(C(=O)O)c(=O)c(F)c1-3 (single isomer, unassigned) [Example 8.1-I, 6-(tert-butyl)-1-fluoro-10-(3-methoxypropoxy)-2-oxo-6,7-dihydro-2H-pyrido[2′,1′:3,4]pyrazino[1,2-b]indazole-3-carboxylic Acid] | – | > 100
CC(C)(C)C1Cn2nc3c(OCCOC(F)(F)F)cccc3c2-c2cc(=O)c(C(=O)O)cn21 (racemic) [Example 2.9, 6-(tert-butyl)-2-oxo-10-(2-(trifluoromethoxy)ethoxy)-6,7-dihydro-2H-pyrido[2′,1′:3,4]pyrazino[1,2-b]indazole-3-carboxylic Acid] | < 1 | –
COCCCOc1cccc2c3n(nc12)CC(C(C)(C)COC)n1cc(C(=O)O)c(=O)cc1-3 (single isomer, unassigned) [Example 7.1-II, 6-(1-methoxy-2-methylpropan-2-yl)-10-(3-methoxypropoxy)-2-oxo-6,7-dihydro-2H-pyrido[2′,1′:3,4]pyrazino[1,2-b]indazole-3-carboxylic Acid] | – | < 1
CC(C)Oc1cccc2c3n(nc12)CC(C(C)(C)C)n1cc(C(=O)O)c(=O)cc1-3 (single isomer, unassigned) [Example 2.47-II, 6-(tert-butyl)-10-isopropoxy-2-oxo-6,7-dihydro-2H-pyrido[2′,1′:3,4]pyrazino[1,2-b]indazole-3-carboxylic Acid] | – | < 1
COCC(COc1cccc2c3n(nc12)CC(C(C)(C)C)n1cc(C(=O)O)c(=O)cc1-3)OC (racemic) [Example 2.13, 6-(tert-butyl)-10-(2,3-dimethoxypropoxy)-2-oxo-6,7-dihydro-2H-pyrido[2′,1′:3,4]pyrazino[1,2-b]indazole-3-carboxylic Acid] | 1 to 100 | –
CC(C)(C)C1Cn2nc3c(OCC4(CS(C)(=O)=O)CC4)cccc3c2-c2cc(=O)c(C(=O)O)cn21 (racemic) [Example 2.24, 6-(tert-butyl)-10-((1-((methylsulfonyl)methyl)cyclopropyl)methoxy)-2-oxo-6,7-dihydro-2H-pyrido[2′,1′:3,4]pyrazino[1,2-b]indazole-3-carboxylic Acid] | > 100 | –
CC(C)(C)C1Cn2nc3ccccc3c2-c2cc(=O)c(C(=O)O)cn21 (single isomer, unassigned) [Example 1.5-II, 6-(tert-butyl)-2-oxo-6,7-dihydro-2H-pyrido[2′,1′:3,4]pyrazino[1,2-b]indazole-3-carboxylic acid] | – | > 100
CC(C)(C)C1Cn2nc3c(OCC(=O)O)cccc3c2-c2cc(=O)c(C(=O)O)cn21 (racemic) [Example 2.23, 6-(tert-butyl)-10-(carboxymethoxy)-2-oxo-6,7-dihydro-2H-pyrido[2′,1′:3,4]pyrazino[1,2-b]indazole-3-carboxylic Acid] | 1 to 100 | –
COCCOc1cccc2c3n(nc12)CC(C(C)(C)C)n1cc(C(=O)O)c(=O)cc1-3 (single isomer, unassigned) [Example 2.2-II, 6-(tert-butyl)-10-(2-methoxyethoxy)-2-oxo-6,7-dihydro-2H-pyrido[2′,1′:3,4]pyrazino[1,2-b]indazole-3-carboxylic Acid] | – | < 1
CN(C)CCCOc1cccc2c3n(nc12)CC(C(C)(C)C)n1cc(C(=O)O)c(=O)cc1-3 (racemic) [Example 2.43, 6-(tert-butyl)-10-(3-(dimethylamino)propoxy)-2-oxo-6,7-dihydro-2H-pyrido[2′,1′:3,4]pyrazino[1,2-b]indazole-3-carboxylic Acid] | > 100 | –
COCCCOc1cccc2c3n(nc12)C1CCC(C)(C)C1n1cc(C(=O)O)c(=O)cc1-3 (single isomer, unassigned) [Example 6.1-I, 12-(3-methoxypropoxy)-3,3-dimethyl-7-oxo-2,3,3a,14a-tetrahydro-1H,7H-cyclopenta[5,6]pyrido[2′,1′:3,4]pyrazino[1,2-b]indazole-6-carboxylic Acid] | – | > 100
CC(C)(C)C1Cn2nc3c(OC[C@@H]4CCC(=O)N4)cccc3c2-c2cc(=O)c(C(=O)O)cn21 (single isomer, unassigned) [Example 2.33-I] | > 100 | –
CC(C)(C)C1Cn2nc3c(OCC(F)F)cccc3c2-c2cc(=O)c(C(=O)O)cn21 (racemic) [Example 2.10, 6-(tert-butyl)-10-(2,2-difluoroethoxy)-2-oxo-6,7-dihydro-2H-pyrido[2′,1′:3,4]pyrazino[1,2-b]indazole-3-carboxylic Acid] | < 1 | –
COCC(C)Oc1cccc2c3n(nc12)CC(C(C)(C)C)n1cc(C(=O)O)c(=O)cc1-3 (single isomer, unassigned) [Example 2.35-I, 6-(tert-butyl)-10-((1-methoxypropan-2-yl)oxy)-2-oxo-6,7-dihydro-2H-pyrido[2′,1′:3,4]pyrazino[1,2-b]indazole-3-carboxylic Acid] | 1 to 100 | –
CC(C)(C)C1Cn2nc3c(OC[C@H]4CCC(=O)N4)cccc3c2-c2cc(=O)c(C(=O)O)cn21 (single isomer, unassigned) [Example 2.34-I] | > 100 | –
CC(C)(C)C1Cn2nc3c(OC4COC4)cccc3c2-c2cc(=O)c(C(=O)O)cn21 (racemic) [Example 2.26, 6-(tert-butyl)-10-(oxetan-3-yloxy)-2-oxo-6,7-dihydro-2H-pyrido[2′,1′:3,4]pyrazino[1,2-b]indazole-3-carboxylic Acid] | 1 to 100 | –
CC[C@H](C)COc1cccc2c3n(nc12)CC(C(C)(C)C)n1cc(C(=O)O)c(=O)cc1-3 (mixture of isomers) [Example 2.6, 6-(tert-butyl)-10-((S)-2-methylbutoxy)-2-oxo-6,7-dihydro-2H-pyrido[2′,1′:3,4]pyrazino[1,2-b]indazole-3-carboxylic Acid] | < 1 | –
COc1cccc2c3n(nc12)C1COC(C)(C)C1n1cc(C(=O)O)c(=O)cc1-3 (single isomer, unassigned) [Example 10.1-I, 12-methoxy-3,3-dimethyl-7-oxo-1,3,3a,14a-tetrahydro-7H-furo[3′,4′:5,6]pyrido[2′,1′:3,4]pyrazino[1,2-b]indazole-6-carboxylic Acid] | – | > 100
COCCCOc1cccc2c3n(nc12)CC(C(C)(C)COC)n1cc(C(=O)O)c(=O)cc1-3 (single isomer, unassigned) [Example 7.1-I, 6-(1-methoxy-2-methylpropan-2-yl)-10-(3-methoxypropoxy)-2-oxo-6,7-dihydro-2H-pyrido[2′,1′:3,4]pyrazino[1,2-b]indazole-3-carboxylic Acid] | – | > 100
CC(C)OCCOc1cccc2c3n(nc12)CC(C(C)(C)C)n1cc(C(=O)O)c(=O)cc1-3 (racemic) [Example 2.15, 6-(tert-butyl)-10-(2-isopropoxyethoxy)-2-oxo-6,7-dihydro-2H-pyrido[2′,1′:3,4]pyrazino[1,2-b]indazole-3-carboxylic Acid] | < 1 | –
CCOCCCOc1cccc2c3n(nc12)CC(C(C)(C)C)n1cc(C(=O)O)c(=O)cc1-3 (racemic) [Example 2.14, 6-(tert-butyl)-10-(3-ethoxypropoxy)-2-oxo-6,7-dihydro-2H-pyrido[2′,1′:3,4]pyrazino[1,2-b]indazole-3-carboxylic Acid] | < 1 | –
COCCCOc1cccc2c3n(nc12)CC(C(C)(C)C)n1cc(C(=O)O)c(=O)cc1-3 (single isomer, unassigned) [Example 2.1-I, 6-(tert-butyl)-10-(3-methoxypropoxy)-2-oxo-6,7-dihydro-2H-pyrido[2′,1′:3,4]pyrazino[1,2-b]indazole-3-carboxylic Acid] | < 1 | –
COc1cccc2c3n(nc12)C1COC(C)(C)C1n1cc(C(=O)O)c(=O)cc1-3 (single isomer, unassigned) [Example 10.1-II, 12-methoxy-3,3-dimethyl-7-oxo-1,3,3a,14a-tetrahydro-7H-furo[3′,4′:5,6]pyrido[2′,1′:3,4]pyrazino[1,2-b]indazole-6-carboxylic Acid] | – | 1 to 100
